Assay results from patent US20060216302A1, “Immunological markers” (priority 2003, published 2006).
Ends that are not written are not given here.

Tests used:
[1] = system: human sera; test: ELISA cross-reactivity of candidate markers with human sera (Example 9); conditions: human serum diluted 1/1000, goat anti-human-HRP, non-specific binding subtracted
Description: Four samples of human sera were obtained with appropriate consent. 20 The frozen samples of cell-free sera were thawed and diluted to 1/1000 in phosphate buffered saline at pH 7.0. Aliquots (100 ul) of these diluted antisera were added to ELISA plates pre-adsorbed with the biomarkers as described in Table 1. A goat anti-human-HRP secondary antibody was used to quantitate the amount of antibody bound to the various marker peptides. Non-specific binding (determined by plating antisera onto PVA coated wells) was subtracted from the readings of the individual marker wells.

[2] = system: Lewis rats; test: Antigenicity and cross-reactivity in rats inoculated with marker-KLH conjugates, serum ELISA (Example 7); type: in vivo, rat; conditions: for Candidate Marker Antibody Reactivity RBM1 / Candidate Marker Antibody Reactivity RBM2 / Candidate Marker Antibody Reactivity RBM4 / Candidate Marker Antibody Reactivity RBM5 / Candidate Marker Antibody Reactivity RBM6 / Candidate Marker Antibody Reactivity RBM7: Table 3; for Candidate Marker Antibody Reactivity RBM1: serum (1/100) of Lewis rats inoculated s.c. with 1.0 mg marker-KLH conjugate in Freund's incomplete adjuvant, day 14-21, ELISA wells coated with RBM1; for Candidate Marker Antibody Reactivity RBM2 / Candidate Marker Antibody Reactivity RBM4 / Candidate Marker Antibody Reactivity RBM5 / Candidate Marker Antibody Reactivity RBM6 / Candidate Marker Antibody Reactivity RBM7: serum (1/100) of Lewis rats inoculated with marker-KLH conjugate; for Candidate Marker Antibody Reactivity RBM2: ELISA wells coated with RBM2; for Candidate Marker Antibody Reactivity RBM4: ELISA wells coated with RBM4; for Candidate Marker Antibody Reactivity RBM5: ELISA wells coated with RBM5; for Candidate Marker Antibody Reactivity RBM6: ELISA wells coated with RBM6; for Candidate Marker Antibody Reactivity RBM7: ELISA wells coated with RBM7; for Relative Absorbance ±SE at 405 nm, Candidate Marker RBM1 / Relative Absorbance ±SE at 405 nm, Candidate Marker RBM4 / Relative Absorbance ±SE at 405 nm, Candidate Marker RBM5 / Relative Absorbance ±SE at 405 nm, Candidate Marker RBM6: Table 4, N = 3, rats inoculated with marker-KLH conjugate, ** P < .01; for Relative Absorbance ±SE at 405 nm, Candidate Marker RBM1: ELISA against RBM1; for Relative Absorbance ±SE at 405 nm, Candidate Marker RBM4: ELISA against RBM4; for Relative Absorbance ±SE at 405 nm, Candidate Marker RBM5: ELISA against RBM5; for Relative Absorbance ±SE at 405 nm, Candidate Marker RBM6: ELISA against RBM6; for Cross-reactivity among the candidate markers: text summary of Table 3, rat sera after marker-KLH inoculation
[3] = system: polyclonal sera against a range of infectious agents and hormones; test: ELISA cross-reactivity screen, whole panel of antisera; type: binding; conditions: whole panel of 12 antisera
[4] = system: rats; test: Antigenicity in rats inoculated with free marker peptides, serum ELISA (Example 8); type: in vivo, rat; conditions: Table 5; for Candidate Marker Antibody Reactivity RBM1: rats inoculated with 1 mg free peptide (not KLH-conjugated) in Freund's incomplete adjuvant, ELISA against RBM1; for Candidate Marker Antibody Reactivity RBM2 / Candidate Marker Antibody Reactivity RBM3 / Candidate Marker Antibody Reactivity RBM4 / Candidate Marker Antibody Reactivity RBM5 / Candidate Marker Antibody Reactivity RBM6 / Candidate Marker Antibody Reactivity RBM7: rats inoculated with free peptide; for Candidate Marker Antibody Reactivity RBM2: ELISA against RBM2; for Candidate Marker Antibody Reactivity RBM3: ELISA against RBM3; for Candidate Marker Antibody Reactivity RBM4: ELISA against RBM4; for Candidate Marker Antibody Reactivity RBM5: ELISA against RBM5; for Candidate Marker Antibody Reactivity RBM6: ELISA against RBM6; for Candidate Marker Antibody Reactivity RBM7: ELISA against RBM7; for Antigenicity (measurable antibody response) of free marker peptide / Interference and cross-reaction with other marker candidates: rats; for Antigenicity (measurable antibody response) of free marker peptide: free peptide not conjugated to KLH; for Interference and cross-reaction with other marker candidates: free peptide

Row | Substance | Candidate Marker Antibody Reactivity, Serum Sample 1 [1] | Candidate Marker Antibody Reactivity, Serum Sample 2 [1] | Candidate Marker Antibody Reactivity, Serum Sample 3 [1] | Candidate Marker Antibody Reactivity, Serum Sample 4 [1] | Candidate Marker Antibody Reactivity RBM1 [2] | Candidate Marker Antibody Reactivity RBM2 [2] | Candidate Marker Antibody Reactivity RBM4 [2] | Candidate Marker Antibody Reactivity RBM5 [2] | Relative Absorbance ±SE at 405 nm, Candidate Marker RBM1 [2] | Relative Absorbance ±SE at 405 nm, Candidate Marker RBM4 [2] | Relative Absorbance ±SE at 405 nm, Candidate Marker RBM5 [2] | Relative Absorbance ±SE at 405 nm, Candidate Marker RBM6 [2] | Candidate Marker Antibody Reactivity RBM1 [4] | Candidate Marker Antibody Reactivity RBM2 [4] | Candidate Marker Antibody Reactivity RBM3 [4] | Candidate Marker Antibody Reactivity RBM4 [4] | Candidate Marker Antibody Reactivity RBM5 [4] | Candidate Marker Antibody Reactivity RBM6 [4] | Candidate Marker Antibody Reactivity RBM7 [4] | Antigenicity (measurable antibody response) of free marker peptide [4] | also measured
1 | EGVYVPV [RBM5, peptide derived from the 5→3 reading of the cDNA encoding angiotensin II; T3 prints Glu-Gly-Val-Tyr-Val-His-Pro-Val] | .22 | .21 | −.02 | −.01 | −.018 | .068 | −.231 | .101 | .57 ± .25 | .15 ± .07 | 1.5 ± .44** | .50 ± .02 |  |  |  |  |  |  |  |  | Candidate Marker Antibody Reactivity RBM6 [2]: .006; Candidate Marker Antibody Reactivity RBM7 [2]: −.058; Cross-reactivity among the candidate markers [2]: cross-react weakly, but consistently
2 | RLAHMYVGKT [RBM4, antisense peptide from angiotensin II complementary DNA, 3→5 direction; KLH conjugate for inoculation] | .08 | .20 | −.16 | −.02 | −.009 | .020 | .079 | .003 | .21 ± .06 | 2.26 ± .40** | .24 ± .23 | .32 ± .07 |  |  |  |  |  |  |  |  | Recognition by any antiserum tested [3]: did not cross-react; Candidate Marker Antibody Reactivity RBM6 [2]: −.035; Candidate Marker Antibody Reactivity RBM7 [2]: −.030
3 | WPHDMCWP [RBM7] | −.11 | .00 | .04 | −.02 |  |  |  |  |  |  |  |  | −.10 | .22 | −.06 | −.12 | .06 | −.10 | .63 | sufficiently antigenic to produce a measurable and consistent antibody response | Interference and cross-reaction with other marker candidates [4]: did not interfere with each other's immune responses nor cross-react with other marker candidates
4 | WFYMYFWFYMYF [RBM3] | .07 | .05 | −.07 | −.01 |  |  |  |  |  |  |  |  |  |  |  |  |  |  |  |  | 
5 | HWRWRMRMHWRWRMRM [RBM6] | .22 | .24 | −.09 | −.03 |  |  |  |  | .12 ± .03 | .02 ± .04 | −07 ± .15 | .84 ± .13** | −.07 | .39 | .02 | −.06 | .19 | −.01 | .12 | failed to produce measurable immunity | 
6 | YFMYRRYFMYRR [RBM1] | .16 | .01 | .08 | .01 |  |  |  |  | .55 ± .15** | −.11 ± .14 | .11 ± .05 | .05 ± .07 | .00 | .20 | −.05 | −.04 | .1 | −.10 | .14 | failed to produce measurable immunity | 
7 | HRNYFHRNYF [RBM2] | .26 | .05 | .27 | −.01 | .034 | .219 | −.037 | .041 |  |  |  |  | −.02 | 3.34 | −.07 | −.01 | .05 | −.23 | −.05 | sufficiently antigenic to produce a measurable and consistent antibody response | Interference and cross-reaction with other marker candidates [4]: did not interfere with each other's immune responses nor cross-react with other marker candidates; Candidate Marker Antibody Reactivity RBM6 [2]: −.006; Candidate Marker Antibody Reactivity RBM7 [2]: .002; Cross-reactivity among the candidate markers [2]: cross-react weakly, but consistently
